Experimental data from US20080159980A1, “Combination cancer therapy with a GST-activated anticancer compound and another anticancer therapy” (Telik, Inc., priority 2002, published 2008).
Where two headings read alike, the source gives them in different places.

How the values were obtained:
[1] = target: T1, GST M1a-1a (Homo sapiens, UniProt P09488); conditions: cited from earlier work
T1 sequence (P09488 1-218): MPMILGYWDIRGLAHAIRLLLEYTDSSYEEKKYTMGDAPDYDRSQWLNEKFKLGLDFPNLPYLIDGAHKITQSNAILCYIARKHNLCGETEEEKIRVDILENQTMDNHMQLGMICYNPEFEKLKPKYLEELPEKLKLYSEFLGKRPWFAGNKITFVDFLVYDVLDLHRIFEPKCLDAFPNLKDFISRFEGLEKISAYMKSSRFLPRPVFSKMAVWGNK

[2] = target: GST P1-1 (Homo sapiens, UniProt P09211); conditions: releases cytotoxic phosphorodiamidate mustard moiety; cited from earlier work
GST P1-1, sequence (P09211 2-210 limits assumed): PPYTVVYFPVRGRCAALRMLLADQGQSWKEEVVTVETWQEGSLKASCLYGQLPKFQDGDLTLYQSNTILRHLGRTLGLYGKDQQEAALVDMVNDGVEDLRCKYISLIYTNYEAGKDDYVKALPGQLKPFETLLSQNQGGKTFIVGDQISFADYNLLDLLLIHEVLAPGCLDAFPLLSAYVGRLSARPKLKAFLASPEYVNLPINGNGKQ

[3] = tested on: human non-Hodgkin's B cell lymphoma cell line RL; assay: RL cell growth, method similar to Example 2 (Example 8); format: cell-based; conditions: RL cells
[4] = tested on: human colon cancer cell line DLD-1; assay: cells; format: cell-based; conditions: DLD-1, read-out: IC20 (concentration of TLK286 used in FIG. 2)
Description: (§1) Assay methods. All assays were conducted in triplicate wells, with solvent control. The extent of cell growth was expressed as a percentage of the signal from the solvent control wells. The means were computed and graphed, with the standard deviations shown as error bars.
The human colon cancer cell line DLD-1 was seeded at 4×10^4 cells/mL, 150 μL/well, and allowed to attach to the wells overnight. The diluted compounds or solvent controls were then added at 50 μL/well. Incubation with TLK286 alone and in combination with oxaliplatin was continued for approximately four cell doublings, and cell viability was determined using the CellTiter-Glo assay (Promega Corporation, Madison, Wis., U.S.A.), used in accordance with the assay kit directions. […] The results were further analyzed using the Combination Index (CI) method with the “CalcuSyn” program from Biosoft.

[5] = tested on: M6709 human colon carcinoma cell line selected for resistance to doxorubicin; conditions: doxorubicin-resistant line overexpressing GST P1-1; Morgan et al. 1998; cited from earlier work
[6] = tested on: human ovarian cancer cell line OVCAR-3; assay: OVCAR-3 cell viability, Wst-1 assay (Example 1); format: cell-based; conditions: OVCAR-3, Wst-1, approximately three cell doublings
Description: as §1
The diluted compounds or solvent controls were then added at 50 μL/well. […] The results were further analyzed using the Combination Index (CI) method with the “CalcuSyn” program from Biosoft.

[7] = tested on: in vitro cell culture and tumor biopsies; conditions: Rosario et al. 2000; cited from earlier work
[8] = tested on: MCF-7 human breast carcinoma cell line selected for resistance to cyclophosphamide; conditions: cyclophosphamide-resistant line overexpressing GST P1-1; Morgan et al. 1998; cited from earlier work
[9] = tested on: human ovarian cancer cell line OVCAR-3
Description: The results were analyzed according to the Combination Index method with the “CalcuSyn” program from Biosoft.

[10] = tested on: ovarian, breast, non-small cell lung, and colorectal cancers
[11] = target: T2, GST A1-1 (Homo sapiens, UniProt P08263); conditions: cited from earlier work
T2 sequence (P08263 2-222 limits assumed): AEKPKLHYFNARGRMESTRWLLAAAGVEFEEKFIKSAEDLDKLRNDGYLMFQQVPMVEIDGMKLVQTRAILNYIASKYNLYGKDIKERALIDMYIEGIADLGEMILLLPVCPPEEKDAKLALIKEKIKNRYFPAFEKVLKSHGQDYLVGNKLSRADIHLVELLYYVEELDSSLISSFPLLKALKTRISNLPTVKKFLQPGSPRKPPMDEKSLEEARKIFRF

[12] = tested on: human breast cancer cell line MCF-7; assay: MCF-7 cell proliferation, BrdU chemiluminescence assay (Example 4); format: cell-based
Description: as §1
MCF-7 was seeded at 4×10^4 cells/mL, 150 μL/well, and allowed to attach to the wells for 4-5 hours. The diluted compounds or solvent controls were then added at 50 μL/well. Incubation with TLK286 alone and in combination with docetaxel was continued for one doubling, and cell proliferation was determined using the BrdU (chemiluminescence) assay, by labeling with BrdU (Roche Diagnostics Corporation, Indianapolis, Ind., U.S.A.) overnight. The assay is based on the incorporation of BrdU, an analogue of thymidine, during DNA synthesis. The incorporation of BrdU, which reflects the extent of cell proliferation, was then quantitated with an ELISA kit (also from Roche Diagnostics Corporation). The results were analyzed according to the Combination Index method.

[13] = tested on: human lung cancer cell line A-549; assay: cells; format: cell-based; conditions: A549, read-out: IC50 (concentration of TLK286 used in FIG. 5)
[14] = tested on: murine xenografts of M7609 engineered to have high, medium, and low levels of GST P1-1; conditions: Morgan et al. 1998; cited from earlier work
[15] = tested on: human breast cancer cell line MX-1; assay: MX-1 cell growth, method similar to Example 2 (Example 9); format: cell-based; conditions: MX-1 cells

## N[C@@H](CCC(=O)N[C@@H](CS(=O)(=O)CCOP(=O)(N(CCCl)CCCl)N(CCCl)CCCl)C(=O)NCC(=O)O)C(=O)O [TLK231, L-γ-glutamyl-3-[[2-[[bis[bis(2-chloroethyl)amino]phosphinyl]oxy]ethyl]sulfonyl]-L-alanyl-glycine]
[1]
  activation by GST isoenzyme: activated

## N[C@@H](CCC(=O)N[C@@H](CS(=O)(=O)CCOP(=O)(N(CCCl)CCCl)N(CCCl)CCCl)C(=O)N[C@@H](C(=O)O)c1ccccc1)C(=O)O [TLK286, L-γ-glutamyl-3-[[2-[[bis[bis (2-chloroethyl)amino]phosphinyl]oxy]ethyl]sulfonyl]-L-alanyl-2-phenyl-(2R)-glycine]
[2]
  activation by GST isoenzyme: activated
[3]
  IC25 (concentration of TLK286 used in FIG. 8): ~4.6 µM
[4]
  IC20: ~9 µM
[5]
  potency in resistant line over parental cell line: more potent
[6]
  IC30 (concentration of TLK286 used in FIG. 1): ~3.1 µM
[7]
  cross-resistance to platinum, paclitaxel, doxorubicin and gemcitabine: non-cross-resistant
[8]
  potency in resistant line over parental cell line: more potent
[9]
  IC10 (concentration of TLK286 used in FIG. 3): ~1.7 µM
[10]; colorectal and breast cancer
  single agent clinical activity: single agent antitumor activity
[10]; patients with non-small cell lung cancer and ovarian cancer
  single agent clinical activity: significant single agent antitumor activity and improvement in survival
[11]
  activation by GST isoenzyme: activated
[12]; MCF-7, BrdU incorporation, one doubling
  IC40 (concentration of TLK286 used in FIG. 4): ~3.3 µM
[13]
  IC50: ~4 µM
[14]
  potency in xenografts versus GST P1-1 level: positively correlated with the level of GST P1-1

## N[C@@H](CCC(=O)N[C@@H](Cc1cccc(S(=O)(=O)CCOP(=O)(N(CCCl)CCCl)N(CCCl)CCCl)c1)C(=O)NCC(=O)O)C(=O)O [TLK296, L-γ-glutamyl-3-[[2-[[bis[bis(2-chloroethyl)amino]phosphinyl]oxy]ethyl]sulfonyl]-L-phenylalanyl-glycine]
[2]
  activation by GST isoenzyme: activated

## C[C@@](NC(=O)[C@H](CS(=O)(=O)CCOP(=O)(N(CCCl)CCCl)N(CCCl)CCCl)NC(=O)CC[C@H](N)C(=O)O)(C(=O)O)c1ccccc1 [TLK303, L-γ-glutamyl-3-[[2-[[bis[bis(2-choroethyl)-amino]phosphinyl]oxy]ethyl]sulfonyl]-L-alanyl-2-phenyl-(2S) -alanine]
[11]
  activation by GST isoenzyme: activated

## CC(=O)O[C@@]12CO[C@@H]1C[C@H](O)[C@@]1(C)C(=O)[C@H](O)C3=C(C)[C@@H](OC(=O)[C@H](O)[C@@H](NC(=O)OC(C)(C)C)c4ccccc4)C[C@@](O)([C@@H](OC(=O)c4ccccc4)[C@H]21)C3(C)C [docetaxel, reference compound]
[12]; MCF-7, BrdU, docetaxel about 0.8 to 3 nM, from nearly no effect
  inhibition of proliferation at top of concentration range: ~60%

## COc1cc2ncnc(Nc3ccc(F)c(Cl)c3)c2cc1OCCCN1CCOCC1 [gefitinib]
[15]
  IC30 (concentration of gefitinib used in FIG. 9): ~2.0 µM
